Data published in patent publication US12071469B2, “Peptide compounds for suppressing inflammation” (Duke University, priority 2011, dated 2024).

Key:
[1] = tested on: mice with traumatic brain injury; test: Rotorod vestibulomotor function after traumatic brain injury; assay type: in vivo, mouse; settings: 0.05 mg/kg iv at 2 h and 6 h after traumatic brain injury
Method: An experimental murine model for traumatic brain injury was developed. Laskowitz, et al. (2010) J. Neurotrauma, 27:1983-95. Male mice (age 12-14 weeks) were anesthetized with 4.3% isoflurane in oxygen in an anesthesia induction box for 90 seconds. The trachea was intubated and the lungs mechanically ventilated with 1.4% isoflurane in a 50/50 mixture of oxygen and nitrogen. Body temperature was maintained at 37° C. using surface heating/cooling. The top of the skull was exposed by a midline incision to identify anatomical landmarks, and a concave 3-mm metallic disc was secured to the skull surface with an adhesive, directly midline and just caudal to the bregma. The disc diffused the energy of impact and reduced the incidence of depressed skull fracture to less than 10%. After general anesthesia, mice were positioned in a stereotactic device and the skull was exposed. A pneumatic impactor (diameter: 2.0 mm; available from Air-Power, Inc.) discharged at 6.8±0.2 m/s with a head displacement of 3 mm was used to deliver a single midline impact to the disc surface.
An experimental procedure for measuring neurological deficits was developed. An automated rotorod (available from Ugo Basile North America, Inc.) was used to assess vestibulomotor function. On the day before experimental induction of a neurological condition or injury (such as, for example, traumatic brain injury or intracerebral hemorrhage as described above), mice under went two consecutive conditioning trials at a set rotational speed (16 revolutions per minute) for 60 seconds followed by three additional trials with an accelerating rotational speed. The average time to fall from the rotating cylinder in the latter three trials was recorded as baseline latency. After injury, mice under went consecutive daily testing with three trials of accelerating rotational speed (intertribal interval of 15 minutes). Average latency to fall from the rod was recorded, and mice unable to grip the rod were scored with a latency of 0 seconds.
Groups of mice received either an ApoE mimetic peptide (SEQ ID NO:3; 0.05 mg/kg or 0.2 mg/kg) or carrier (saline) by intravenous tail vein injection at 2 hours and again at 6 hours after traumatic brain injury induced as described in Example 3. Each mouse was tested for vestibulomotor function by rotorod latency measured before and after injury, as described in Example 3.
Groups of mice received either an ApoE mimetic peptide (SEQ ID NO:4; 0.05 mg/kg) or carrier (saline) by intravenous tail vein injection at 2 hours and again at 6 hours after traumatic brain injury induced as described in Example 3. Each mouse was tested for vestibulomotor function by rotorod latency measured before and after injury, as described in Example 3. […]

[2] = tested on: mice with middle cerebral artery occlusion (focal ischemia-reperfusion); test: Rotorod vestibulomotor function after modified middle cerebral artery occlusion (MCAO); assay type: in vivo, mouse
Description: A modified middle cerebral artery occlusion (MCAO) model (Huang et al., (1994) Science, 265:1883-1885; Laskowitz et al., (1997) J. Cereb. Blood Flow Metab., 17:753-758) was used to determine the effect of the mimetic peptides on neurological function after stroke and to evaluate the peptide's efficacy as a therapeutic agent for stroke. The mice were endotracheally intubated after anesthesia induction with 4.6% isoflurane, and the lungs were mechanically ventilated with 1.6% isoflurane in 30% O2/70% N2. Via a midline cervical skin incision, the right common carotid artery was identified. The external carotid artery was ligated and transected. The internal carotid artery was dissected distally until the origin of the pterygopalatine artery was visualized. A 6-0 nylon monofilament with blunted tip lightly coated with silicone was inserted into the proximal external carotid artery stump and advanced 11 mm into the internal carotid artery to occlude the middle cerebral artery. After 90 min, the filament was removed to restore blood perfusion, and the skin incision closed with suture. Isoflurane was discontinued and the mice were extubated upon the recovery of spontaneous respiration. Post-injury mice were placed in an oxygen-enriched environment (FIO2=50%) for 1 hr and then returned to their cages. Rectal temperature was continuously monitored and servoregulated with surface heating/cooling at 37° C. throughout the procedure.
Two groups of 10-12 week old male C57Bl/6J mice, a control group (n=12) and a VR-55-treated group (n=9), received MCAO. […]
An automated Rotorod (Ugo Basile, Comerio, Italy) was used to assess vestibulomotor function, as previously described above. […] The average time to fall from the rotating cylinder in the latter 3 trials was recorded as baseline functional Rotorod latency. […] The average latency to fall from the rod was recorded. […]

Substance: Ac-VSRRR-NH2 [VR-55, Ac-VSRRR-NH2]
- durability of effect on rotorod latency [1]: durable through the five-day testing period
- vestibulomotor performance (rotorod latency) compared to carrier ([1]; FIG. 3): improved vestibulomotor performance
- functional Rotorod latency compared to control mice ([2]; Day 3 post-injury, 0.05 mg/kg iv at 30 min and 6 hrs after reperfusion): improvement in functional Rotorod latency
- functional Rotorod latency ([2]; Day 3 post-injury, 0.05 mg/kg iv at 30 min and 6 hrs after reperfusion, control mice 161+/−32 sec): 216 ± 26 s
- baseline functional Rotorod latency ([2]; day before MCAO, control mice 217+/−20 sec): 214 ± 22 s
